Data published in US9339034B2, “Use of thaxtomin for selective control of rice and aquatic based weeds” (MARRONE BIO INNOVATIONS, INC., priority 2009, dated 2016).

Assays:
barnyardgrass = assay: First study, weed control; assay type: in vivo; details: 500-1000 g a.i. per hectare
SCM = assay: Greenhouse pot study, weed control; assay type: in vivo, Scirpus mucronatus
From the text: (§1) The activity on susceptible and resistant biotypes of Scirpus mucronatus was somewhat weaker (70 to 75%) than that observed for other sedge weeds in this study.

WCN = assay: Greenhouse pot study, weed control; assay type: in vivo, Eleocharis dulcis
From the text: as §1

CPD = assay: Greenhouse pot study, weed control; assay type: in vivo, Cyperus difformis
From the text: (§2) Moderate suppression (60%) was noted on Echinochloa colonum at 500 g a.i. per hectare.

SPZ = assay: Greenhouse pot study, weed control; assay type: in vivo, Sphenoclea zeylanica
Alisma plantago-aquatica = assay: Pot study, spray of pure thaxtomin A solutions, % control; assay type: in vivo, common waterplantain; Alisma plantago-aquatica; details: for % control: Alisma plantago-aquatica
Description: (§3) A pot study was conducted to test the phytotoxicity of thaxtomin A on broadleaved, sedge and grass weeds. Seeds of two most common broadleaf (redstem; Ammannia spp. and common waterplantain; Alisma plantago-aquatica), sedge (smallflower umbrella sedge; Cyperus diiformis) and grass (sprangletop: Leptochloa uninervia) weeds each were planted in a plastic pots filled with heavy clay soil. The less than 1-inch tall plants grown under growth lights (12-h light/12-h dark) at 28° C. were sprayed with pure thaxtomin A solutions containing 0.05, 0.1, 0.2, and 0.4 mg thaxtomin A per mL of solvent (4% ethanol and 0.2% non-ionic surfactant). A solution of 4% ethanol+0.2% non-ionic surfactant without thaxtomin A was used as a control treatment. Same treatments were applied to three-inch tall rice plants grown submerged under growth lights at 28° C. […] All treatments were applied in three replicates. Treated plants were kept at 28° C. under growth lights and observed at three time points—5, 12 and 21 days after treatment—for visual symptoms of phytotoxicity and % control.

DSR (direct-seeded rice) = assay: Greenhouse pot study, effect on crop growth, direct-seeded rice; assay type: in vivo
Echinochloa colonum = assay: First study, weed control; assay type: in vivo; details: 500-1000 g a.i. per hectare
LEF = assay: Greenhouse pot study, weed control; assay type: in vivo
[1] = tested on: mono and dicotyledonous seedlings; details: cited from earlier work
MAQ = assay: Greenhouse pot study, weed control; assay type: in vivo, Marsilea quadrifolia
From the text: as §1

Ammania sp = assay: Pot study, spray of pure thaxtomin A solutions, % control; assay type: in vivo, redstem; Ammannia spp.
Description: as §3

[2] = tested on: TPL (transplanted 'M202' Japonica-type rice); assay: Greenhouse pot study, effect on crop growth, transplanted rice; assay type: in vivo; details: for effect on crop growth (rice): TPL
MON = assay: Greenhouse pot study, weed control; assay type: in vivo, Monorhoria vaginalis
CYI = assay: Greenhouse pot study, weed control; assay type: in vivo, Cyperus iria
ECC = assay: Greenhouse pot study, weed control; assay type: in vivo, Echinochloa colonum
From the text: as §2

[3] = tested on: most of the Echinochloa spp.; assay: Greenhouse pot study, weed control; assay type: in vivo; details: up to the highest rate tested; 1000 g a.i. per hectare
From the text: as §2

rice (S102, M104, M206) = assay: Pot study, phytotoxicity on rice plants; assay type: in vivo; details: three rice cultivars (S102, M104, M206); 0.05-0.4 mg/mL; each evaluation time point (5, 12, 21 days)
Description: as §3

direct-seeded rice = assay: First study, crop safety; assay type: in vivo; details: rates up to 750 g a.i. per hectare
BYG = assay: Greenhouse pot study, weed control; assay type: in vivo, barnyardgrass

CN1C(=O)[C@](O)(Cc2cccc(O)c2)N(C)C(=O)[C@@H]1Cc1c[nH]c2cccc([N+](=O)[O-])c12 [thaxtomin A]
activity on barnyardgrass (barnyardgrass): moderate activity
% control (SCM; 64 g/ha): 0%
% control (SCM; 125 g/ha): 30%
% control (SCM; 250 g/ha): 30%
% control (SCM; 500 g/ha): 70%
% control (SCM; 1000 g/ha): 95%
% control (WCN; 125 g/ha): 35%
% control (WCN; 250 g/ha): 85%
% control (WCN; 500 g/ha): 85%
% control (WCN; 1000 g/ha): 95%
% control (CPD; 64 g/ha): 0%
% control (CPD; 125 g/ha): 85%
% control (CPD; 250 g/ha): 100%
% control (CPD; 500 g/ha): 100%
% control (CPD; 1000 g/ha): 100%
% control (SPZ; 64 g/ha): 0%
% control (SPZ; 125 g/ha): 90%
% control (SPZ; 250 g/ha): 90%
% control (SPZ; 500 g/ha): 100%
% control (SPZ; 1000 g/ha): 100%
control of common water plantain (Alisma plantago-aquatica; 0.2 mg/ml): complete control
% control (Alisma plantago-aquatica; 5 DAYS, 0.05 mg/mL in 4% ethanol): 8a %
% control (Alisma plantago-aquatica; 5 DAYS, 0.1 mg/mL in 4% ethanol): 28ab %
% control (Alisma plantago-aquatica; 5 DAYS, 0.2 mg/mL in 4% ethanol): 40b %
% control (Alisma plantago-aquatica; 5 DAYS, 0.4 mg/mL in 4% ethanol): 62b %
% control (Alisma plantago-aquatica; 12 DAYS, 0.05 mg/mL in 4% ethanol): 40b %
% control (Alisma plantago-aquatica; 12 DAYS, 0.1 mg/mL in 4% ethanol): 43b %
% control (Alisma plantago-aquatica; 12 DAYS, 0.2 mg/mL in 4% ethanol): 87c %
% control (Alisma plantago-aquatica; 12 DAYS, 0.4 mg/mL in 4% ethanol): 87c %
% control (Alisma plantago-aquatica; 21 DAYS, 0.05 mg/mL in 4% ethanol): 83b %
% control (Alisma plantago-aquatica; 21 DAYS, 0.1 mg/mL in 4% ethanol): 70b %
% control (Alisma plantago-aquatica; 21 DAYS, 0.2 mg/mL in 4% ethanol): 100c %
% control (Alisma plantago-aquatica; 21 DAYS, 0.4 mg/mL in 4% ethanol): 98c %
effect on crop growth (rice) (DSR (direct-seeded rice); 64 g/ha): 10%
effect on crop growth (rice) (DSR (direct-seeded rice); 125 g/ha): 10%
effect on crop growth (rice) (DSR (direct-seeded rice); 250 g/ha): 10%
effect on crop growth (rice) (DSR (direct-seeded rice); 500 g/ha): 15%
effect on crop growth (rice) (DSR (direct-seeded rice); 1000 g/ha): 40%
% control (Echinochloa colonum): 90-100%
% control (LEF; 64 g/ha): 0%
% control (LEF; 125 g/ha): 50%
% control (LEF; 250 g/ha): 60%
% control (LEF; 500 g/ha): 70%
% control (LEF; 1000 g/ha): 100%
concentration causing cell swelling, necrosis and growth inhibition [1]: less than 1 uM
% control (MAQ; 64 g/ha): 20%
% control (MAQ; 125 g/ha): 25%
% control (MAQ; 250 g/ha): 40%
% control (MAQ; 500 g/ha): 70%
% control (MAQ; 1000 g/ha): 85%
% control (Ammania sp; Ammania sp, 5 DAYS, 0.05 mg/mL in 4% ethanol): 0%
% control (Ammania sp; Ammania sp, 5 DAYS, 0.1 mg/mL in 4% ethanol): 0%
% control (Ammania sp; Ammania sp, 5 DAYS, 0.2 mg/mL in 4% ethanol): 0%
% control (Ammania sp; Ammania sp, 5 DAYS, 0.4 mg/mL in 4% ethanol): 0%
% control (Ammania sp; Ammania sp, 12 DAYS, 0.05 mg/mL in 4% ethanol): 0a %
% control (Ammania sp; Ammania sp, 12 DAYS, 0.1 mg/mL in 4% ethanol): 0a %
% control (Ammania sp; Ammania sp, 12 DAYS, 0.2 mg/mL in 4% ethanol): 0a %
% control (Ammania sp; Ammania sp, 12 DAYS, 0.4 mg/mL in 4% ethanol): 3b %
% control (Ammania sp; Ammania sp, 21 DAYS, 0.05 mg/mL in 4% ethanol): 63b %
% control (Ammania sp; Ammania sp, 21 DAYS, 0.1 mg/mL in 4% ethanol): 53b %
% control (Ammania sp; Ammania sp, 21 DAYS, 0.2 mg/mL in 4% ethanol): 70b %
% control (Ammania sp; Ammania sp, 21 DAYS, 0.4 mg/mL in 4% ethanol): 75b %
% control (Ammania sp; red stem (Ammania sp.), highest concentration (0.4 mg/mL)): 75-80%
selectivity on transplanted rice ([2]; 1000 g a.i.): excellent selectivity
effect on crop growth (rice) ([2]; 64 g/ha): 0%
effect on crop growth (rice) ([2]; 125 g/ha): 0%
effect on crop growth (rice) ([2]; 250 g/ha): 0%
effect on crop growth (rice) ([2]; 500 g/ha): 0%
effect on crop growth (rice) ([2]; 1000 g/ha): 10%
rice selectivity ([2]; transplanted 'M202' Japonica-type rice, 500 g a.i. per hectare): excellent rice selectivity
% control (MON; 64 g/ha): 0%
% control (MON; 125 g/ha): 100%
% control (MON; 250 g/ha): 100%
% control (MON; 500 g/ha): 100%
% control (MON; 1000 g/ha): 100%
% control (CYI; 64 g/ha): 45%
% control (CYI; 125 g/ha): 45%
% control (CYI; 250 g/ha): 95%
% control (CYI; 500 g/ha): 100%
% control (CYI; 1000 g/ha): 100%
% control (ECC; 64 g/ha): 0%
% control (ECC; 125 g/ha): 0%
% control (ECC; 250 g/ha): 35%
% control (ECC; 500 g/ha): 60%
% control (ECC; 1000 g/ha): 60%
activity on Echinochloa spp. [3]: weakness
phytotoxicity in rice cultivars (rice (S102, M104, M206)): no phytotoxicity
growth reductions to direct-seeded rice (direct-seeded rice): only slight growth reductions
% control (BYG; 64 g/ha): 0%
% control (BYG; 125 g/ha): 0%
% control (BYG; 250 g/ha): 15%
% control (BYG; 500 g/ha): 30%
% control (BYG; 1000 g/ha): 40%
